Experimental data taken from ChEMBL document CHEMBL1201862, “PubChem BioAssay data set” (2004).
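Compound exposure: 48 hours, 5 concentrations, 96-well plates. GI50 marks 50% less growth.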 Active and inactive are the calls of the source. Rule as the data show it: active = GI50 up to about 1.1 µM and inactive = higher.

How the values were obtained:
Test in all cases: inhibition of tumour cell growth, NCI panel, 48 h
786-0 = test system: 786-0
A549 = test system: A549
ACHN = test system: ACHN
CAKI-1 = test system: CAKI-1
CCRF-CEM = test system: CCRF-CEM
COLO 205 = test system: COLO 205
DLD-1 = test system: DLD-1
DMS-114 = test system: DMS-114
DMS-273 = test system: DMS-273
EKVX = test system: EKVX
HCC 2998 = test system: HCC 2998
HCT-116 = test system: HCT-116
HCT-15 = test system: HCT-15
HL-60 = test system: HL-60
HOP-18 = test system: HOP-18
HOP-62 = test system: HOP-62
HOP-92 = test system: HOP-92
HT-29 = test system: HT-29
IGROV-1 = test system: IGROV-1
K562 = test system: K562
KM-20L2 = test system: KM-20L2
KM12 = test system: KM12
LOX IMVI = test system: LOX IMVI
LXFL 529 = test system: LXFL 529
M14 = test system: M14
M19-MEL = test system: M19-MEL
MOLT-4 = test system: MOLT-4
Malme-3M = test system: Malme-3M
NCI-H226 = test system: NCI-H226
NCI-H23 = test system: NCI-H23
NCI-H460 = test system: NCI-H460
OVCAR-3 = test system: OVCAR-3
OVCAR-4 = test system: OVCAR-4
OVCAR-5 = test system: OVCAR-5
OVCAR-8 = test system: OVCAR-8
RPMI-8226 = test system: RPMI-8226
RXF 393 = test system: RXF 393
RXF 631 = test system: RXF 631
SF-268 = test system: SF-268
SF-295 = test system: SF-295
SF-539 = test system: SF-539
SK-MEL-28 = test system: SK-MEL-28
SK-MEL-2 = test system: SK-MEL-2
SK-MEL-5 = test system: SK-MEL-5
SK-OV-3 = test system: SK-OV-3
SN12C = test system: SN12C
SNB-19 = test system: SNB-19
SNB-75 = test system: SNB-75
SNB-78 = test system: SNB-78
SR = test system: SR
SW-620 = test system: SW-620
TK-10 = test system: TK-10
U-251 = test system: U-251
UACC-257 = test system: UACC-257
UACC-62 = test system: UACC-62
UO-31 = test system: UO-31
XF498 = test system: XF498
NCI-H522 = test system: NCI-H522
A498 = test system: A498
BT-549 = test system: BT-549
DU-145 = test system: DU-145
Hs-578T = test system: Hs-578T
MCF7 = test system: MCF7
MDA-MB-231 = test system: MDA-MB-231
MDA-MB-435 = test system: MDA-MB-435
MDA-N = test system: MDA-N
NCI/ADR-RES = test system: NCI/ADR-RES
PC-3 = test system: PC-3
T47D = test system: T47D

CCP(C)(=O)CC
GI50 (786-0): > 100 µM (inactive)
GI50 (A549): > 100 µM (inactive)
GI50 (ACHN): > 100 µM (inactive)
GI50 (CAKI-1): > 100 µM (inactive)
GI50 (CCRF-CEM): > 100 µM (inactive)
GI50 (COLO 205): > 100 µM (inactive)
GI50 (DLD-1): > 100 µM (inactive)
GI50 (DMS-114): > 100 µM (inactive)
GI50 (DMS-273): > 100 µM (inactive)
GI50 (EKVX): > 100 µM (inactive)
GI50 (HCC 2998): > 100 µM (inactive)
GI50 (HCT-116): > 100 µM (inactive)
GI50 (HCT-15): > 100 µM
GI50 (HL-60): > 100 µM (inactive)
GI50 (HOP-18): > 100 µM (inactive)
GI50 (HOP-62): > 100 µM (inactive)
GI50 (HOP-92): > 100 µM (inactive)
GI50 (HT-29): > 100 µM (inactive)
GI50 (IGROV-1): > 100 µM (inactive)
GI50 (K562): > 100 µM (inactive)
GI50 (KM-20L2): > 100 µM (inactive)
GI50 (KM12): > 100 µM (inactive)
GI50 (LOX IMVI): > 100 µM (inactive)
GI50 (LXFL 529): > 100 µM (inactive)
GI50 (M14): > 100 µM (inactive)
GI50 (M19-MEL): > 100 µM (inactive)
GI50 (MOLT-4): > 100 µM (inactive)
GI50 (Malme-3M): > 100 µM (inactive)
GI50 (NCI-H226): > 100 µM (inactive)
GI50 (NCI-H23): > 100 µM (inactive)
GI50 (NCI-H460): > 100 µM (inactive)
GI50 (OVCAR-3): > 100 µM (inactive)
GI50 (OVCAR-4): > 100 µM (inactive)
GI50 (OVCAR-5): > 100 µM (inactive)
GI50 (OVCAR-8): > 100 µM (inactive)
GI50 (RPMI-8226): > 100 µM (inactive)
GI50 (RXF 393): > 100 µM (inactive)
GI50 (RXF 631): > 100 µM (inactive)
GI50 (SF-268): > 100 µM (inactive)
GI50 (SF-295): > 100 µM (inactive)
GI50 (SF-539): > 100 µM (inactive)
GI50 (SK-MEL-28): > 100 µM (inactive)
GI50 (SK-MEL-2): > 100 µM (inactive)
GI50 (SK-MEL-5): > 100 µM (inactive)
GI50 (SK-OV-3): > 100 µM (inactive)
GI50 (SN12C): > 100 µM (inactive)
GI50 (SNB-19): > 100 µM (inactive)
GI50 (SNB-75): > 100 µM (inactive)
GI50 (SNB-78): > 100 µM (inactive)
GI50 (SR): > 100 µM (inactive)
GI50 (SW-620): > 100 µM (inactive)
GI50 (TK-10): > 100 µM (inactive)
GI50 (U-251): > 100 µM (inactive)
GI50 (UACC-257): > 100 µM (inactive)
GI50 (UACC-62): > 100 µM (inactive)
GI50 (UO-31): > 100 µM (inactive)
GI50 (XF498): > 100 µM (inactive)

COc1ccc(-c2onc(-c3c(C)cc(C)cc3C)c2C2=NCCN2)cc1
GI50 (786-0): 31.1 µM (inactive)
GI50 (A549): 74.5 µM (inactive)
GI50 (ACHN): 86.3 µM (inactive)
GI50 (CAKI-1): 21.1 µM (inactive)
GI50 (CCRF-CEM): 34 µM (inactive)
GI50 (COLO 205): 20.4 µM (inactive)
GI50 (DLD-1): 74 µM (inactive)
GI50 (EKVX): 70 µM (inactive)
GI50 (HCC 2998): 44.1 µM (inactive)
GI50 (HCT-116): 20.4 µM (inactive)
GI50 (HCT-15): 40.3 µM
GI50 (HL-60): 16.4 µM (inactive)
GI50 (HOP-18): 10.9 µM (inactive)
GI50 (HOP-62): 59.2 µM (inactive)
GI50 (HT-29): 25.5 µM (inactive)
GI50 (IGROV-1): > 100 µM (inactive)
GI50 (K562): 28.2 µM (inactive)
GI50 (KM-20L2): 28.3 µM (inactive)
GI50 (KM12): 44.5 µM (inactive)
GI50 (LOX IMVI): 30.1 µM (inactive)
GI50 (LXFL 529): > 100 µM (inactive)
GI50 (M14): 19.5 µM (inactive)
GI50 (M19-MEL): 86.5 µM (inactive)
GI50 (MOLT-4): 39.8 µM (inactive)
GI50 (Malme-3M): 33.3 µM (inactive)
GI50 (NCI-H226): 17.8 µM (inactive)
GI50 (NCI-H23): > 100 µM (inactive)
GI50 (NCI-H460): 28.8 µM (inactive)
GI50 (NCI-H522): > 10 µM (inactive)
GI50 (OVCAR-3): > 10 µM (inactive)
GI50 (OVCAR-4): > 100 µM (inactive)
GI50 (OVCAR-5): > 100 µM (inactive)
GI50 (OVCAR-8): 34.8 µM (inactive)
GI50 (RPMI-8226): 29 µM (inactive)
GI50 (RXF 393): 39.2 µM (inactive)
GI50 (RXF 631): 70.6 µM (inactive)
GI50 (SF-268): 36.7 µM (inactive)
GI50 (SF-295): 17.6 µM (inactive)
GI50 (SF-539): 20 µM (inactive)
GI50 (SK-MEL-28): 22.8 µM (inactive)
GI50 (SK-MEL-2): 48.2 µM (inactive)
GI50 (SK-MEL-5): 17.2 µM (inactive)
GI50 (SK-OV-3): 14.2 µM (inactive)
GI50 (SN12C): 48.6 µM (inactive)
GI50 (SNB-19): 33.9 µM (inactive)
GI50 (SNB-75): 84.9 µM (inactive)
GI50 (SNB-78): 35.2 µM (inactive)
GI50 (SR): 32.2 µM (inactive)
GI50 (SW-620): 47.2 µM (inactive)
GI50 (U-251): 18.9 µM (inactive)
GI50 (UACC-257): 18.7 µM (inactive)
GI50 (UACC-62): 36.3 µM (inactive)
GI50 (UO-31): 17.1 µM (inactive)

CC(C)=CCC1=C(O)C(=O)c2ccccc2C1=O [LAPACHOL]
GI50 (A498): 60.4 µM (inactive)
GI50 (BT-549): 51.8 µM (inactive)
GI50 (CAKI-1): 55 µM (inactive)
GI50 (DMS-114): 60.3 µM (inactive)
GI50 (DU-145): 36.9 µM (inactive)
GI50 (EKVX): 78.7 µM (inactive)
GI50 (HCC 2998): 86.3 µM (inactive)
GI50 (HOP-18): 15.2 µM (inactive)
GI50 (HOP-92): 79.6 µM (inactive)
GI50 (Hs-578T): 34.8 µM (inactive)
GI50 (MCF7): 24.4 µM (inactive)
GI50 (MDA-MB-231): 8.53 µM (inactive)
GI50 (MDA-MB-435): 18.5 µM (inactive)
GI50 (MDA-N): 17.4 µM (inactive)
GI50 (NCI-H226): 53.8 µM (inactive)
GI50 (NCI/ADR-RES): 32.3 µM (inactive)
GI50 (OVCAR-4): 33.7 µM (inactive)
GI50 (OVCAR-5): > 100 µM (inactive)
GI50 (PC-3): 2.92 µM (inactive)
GI50 (RXF 631): 22.2 µM (inactive)
GI50 (SK-MEL-2): 35.5 µM (inactive)
GI50 (SK-MEL-5): 11.7 µM (inactive)
GI50 (SNB-75): 57.1 µM (inactive)
GI50 (SNB-78): > 100 µM (inactive)
GI50 (T47D): 61.4 µM (inactive)
GI50 (XF498): 42.4 µM (inactive)
